According to patent US8846949B2, “Pyrrolopyrazoles as N-type calcium channel blockers” (Janssen Pharmaceutica NV, priority 2012, dated 2014):

Target: T1, N-type calcium channel α1B (Cav2.2), β3 and α2δ subunits (Homo sapiens, UniProt Q00975)
T1 construct: expressed in transfected cells
Assay: Functional assay, antagonism of N-type calcium channel (FDSS calcium mobilization response to KCl depolarization)
Assay type: cell-based
Details: for IC50: HEK stable cell line, 50 mM KCl depolarization, six-point concentration-response; for inhibition at 0.33 µM: 0.33 μM compound, FDSS, 50 mM KCl
Experimental: A stable cell line (HEK parent) co-expressing the α1B (Cav2.2), β3 and α2δ subunits of the N-type calcium channel subunits was used. These cells were routinely grown as monolayers in low glucose-containing Dulbecco's Modified Eagle Medium supplemented with 10% FBS, 2 mM L-glutamine, 100 I.U./mL penicillin, 100 μg/mL streptomycin, 400 μg/mL G418 and 200 μg/mL Zeocin (split ratio=1:5). Cells were maintained in 5% CO2 at 37° C. Compounds of Formula (I) were prepared as 10 mM stocks in DMSO from neat compound, if available. Otherwise, the 5 or 10 mM DMSO stock solutions provided in-house were used.
Calcium mobilization responses to KCl depolarization were evaluated by measuring the intensity of calcium-mediated fluorescent signal in the presence of BD Calcium Assay Dye (BD Biosciences, Franklin Lakes, N.J., U.S.A.), utilizing a Functional Drug Screening System (FDSS) by Hamamatsu Corporation (Bridgewater, N.J. U.S.A.).
Twenty-four hr prior to assay, cells were seeded in clear-base poly-D-lysine-coated 384-well plates (BD Biosciences) at a density of 5,000 cells per well in culture medium and grown overnight in 5% CO2 at 37° C. On the day of assay, growth media were removed, and cells were loaded with BD calcium assay dye (BD Biosciences) for 35 min at 37° C. under 5% CO2 and then for 25 min at room temp. Utilizing the FDSS, cells were exposed to representative compounds of Formula (I) at varying concentrations, and intracellular calcium was measured for 5 min prior to the addition of 50 mM KCl for an additional 3 min of measurement.
IC50 values for representative compounds of Formula (I) were determined from six-point concentration-response experiments and represent the concentration of said compound required to inhibit 50% of the maximal response. Maximal fluorescence intensity (FI) achieved upon addition of 50 mM KCl was exported from the FDSS software and further analyzed using GraphPad Prism 3.02 (Graph Pad Software Inc., San Diego, Calif., U.S.A.). Data were normalized to the maximum average counts from quadruplicate wells for each condition in the presence of 50 mM KCl and to the minimum average counts in the presence of buffer. Theoretical curves were generated using nonlinear regression curve-fitting analysis of either sigmoidal concentration-response or sigmoidal concentration-response (variable slope), and the IC50 values with the best-fit curve determined by GraphPad Prism were reported.

T1 sequence (Q00975 whole entry): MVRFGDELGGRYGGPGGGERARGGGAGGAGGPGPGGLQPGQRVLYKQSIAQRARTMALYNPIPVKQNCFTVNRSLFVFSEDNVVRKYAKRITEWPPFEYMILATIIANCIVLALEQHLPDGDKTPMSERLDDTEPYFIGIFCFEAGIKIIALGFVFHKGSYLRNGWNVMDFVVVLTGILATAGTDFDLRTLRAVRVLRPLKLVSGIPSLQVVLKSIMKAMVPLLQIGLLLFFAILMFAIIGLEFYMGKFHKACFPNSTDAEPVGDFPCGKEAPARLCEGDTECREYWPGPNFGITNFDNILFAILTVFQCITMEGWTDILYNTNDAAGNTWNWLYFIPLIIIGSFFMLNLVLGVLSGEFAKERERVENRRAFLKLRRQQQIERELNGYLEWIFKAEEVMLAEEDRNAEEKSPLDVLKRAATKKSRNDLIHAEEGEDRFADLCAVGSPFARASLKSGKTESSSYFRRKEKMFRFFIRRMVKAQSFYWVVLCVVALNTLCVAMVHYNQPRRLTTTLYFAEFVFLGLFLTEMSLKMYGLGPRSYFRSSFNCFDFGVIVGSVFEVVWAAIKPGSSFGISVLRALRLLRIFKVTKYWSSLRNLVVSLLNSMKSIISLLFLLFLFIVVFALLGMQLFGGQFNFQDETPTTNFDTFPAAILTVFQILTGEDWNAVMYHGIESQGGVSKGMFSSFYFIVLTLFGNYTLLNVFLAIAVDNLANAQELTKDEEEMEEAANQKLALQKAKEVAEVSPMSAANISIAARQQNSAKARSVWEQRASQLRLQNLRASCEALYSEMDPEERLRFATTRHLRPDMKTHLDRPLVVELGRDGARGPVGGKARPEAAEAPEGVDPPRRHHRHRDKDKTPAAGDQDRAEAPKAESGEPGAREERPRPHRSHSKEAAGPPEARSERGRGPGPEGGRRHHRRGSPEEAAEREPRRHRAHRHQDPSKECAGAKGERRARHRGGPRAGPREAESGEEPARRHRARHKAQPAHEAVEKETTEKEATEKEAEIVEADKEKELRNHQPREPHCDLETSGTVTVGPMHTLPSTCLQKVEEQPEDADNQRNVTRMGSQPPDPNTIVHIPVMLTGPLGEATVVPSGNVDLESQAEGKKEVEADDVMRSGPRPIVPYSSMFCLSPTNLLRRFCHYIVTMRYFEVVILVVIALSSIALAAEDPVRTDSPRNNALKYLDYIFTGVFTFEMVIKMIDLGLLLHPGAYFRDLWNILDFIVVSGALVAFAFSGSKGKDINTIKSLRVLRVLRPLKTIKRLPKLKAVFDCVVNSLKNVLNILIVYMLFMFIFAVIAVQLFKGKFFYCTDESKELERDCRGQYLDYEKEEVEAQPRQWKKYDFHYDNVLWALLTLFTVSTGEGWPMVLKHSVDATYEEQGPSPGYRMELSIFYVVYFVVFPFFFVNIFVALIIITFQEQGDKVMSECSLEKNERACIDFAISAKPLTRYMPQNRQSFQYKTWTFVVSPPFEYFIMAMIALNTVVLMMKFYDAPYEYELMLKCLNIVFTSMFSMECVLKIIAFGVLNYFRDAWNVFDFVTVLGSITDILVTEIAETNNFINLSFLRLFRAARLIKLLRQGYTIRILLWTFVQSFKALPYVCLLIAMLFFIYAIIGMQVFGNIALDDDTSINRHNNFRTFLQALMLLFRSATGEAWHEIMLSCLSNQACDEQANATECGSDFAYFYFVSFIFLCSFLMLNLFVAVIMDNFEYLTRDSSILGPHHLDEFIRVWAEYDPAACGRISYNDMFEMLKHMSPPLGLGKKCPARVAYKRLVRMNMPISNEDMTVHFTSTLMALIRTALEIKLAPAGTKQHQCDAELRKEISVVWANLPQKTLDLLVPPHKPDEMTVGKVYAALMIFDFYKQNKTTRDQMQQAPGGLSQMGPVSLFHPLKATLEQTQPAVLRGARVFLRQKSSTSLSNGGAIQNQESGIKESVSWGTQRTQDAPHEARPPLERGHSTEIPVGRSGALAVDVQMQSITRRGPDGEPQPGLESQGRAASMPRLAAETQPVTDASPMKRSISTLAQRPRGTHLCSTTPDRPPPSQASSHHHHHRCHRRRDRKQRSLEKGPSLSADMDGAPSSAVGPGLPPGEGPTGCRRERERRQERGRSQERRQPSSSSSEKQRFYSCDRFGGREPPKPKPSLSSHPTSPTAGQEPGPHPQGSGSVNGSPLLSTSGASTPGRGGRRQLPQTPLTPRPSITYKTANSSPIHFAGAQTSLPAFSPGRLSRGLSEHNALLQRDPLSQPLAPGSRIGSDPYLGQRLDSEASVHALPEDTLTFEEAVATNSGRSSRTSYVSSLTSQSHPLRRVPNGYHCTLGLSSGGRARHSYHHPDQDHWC
T1 sequence (P54284 whole entry partner): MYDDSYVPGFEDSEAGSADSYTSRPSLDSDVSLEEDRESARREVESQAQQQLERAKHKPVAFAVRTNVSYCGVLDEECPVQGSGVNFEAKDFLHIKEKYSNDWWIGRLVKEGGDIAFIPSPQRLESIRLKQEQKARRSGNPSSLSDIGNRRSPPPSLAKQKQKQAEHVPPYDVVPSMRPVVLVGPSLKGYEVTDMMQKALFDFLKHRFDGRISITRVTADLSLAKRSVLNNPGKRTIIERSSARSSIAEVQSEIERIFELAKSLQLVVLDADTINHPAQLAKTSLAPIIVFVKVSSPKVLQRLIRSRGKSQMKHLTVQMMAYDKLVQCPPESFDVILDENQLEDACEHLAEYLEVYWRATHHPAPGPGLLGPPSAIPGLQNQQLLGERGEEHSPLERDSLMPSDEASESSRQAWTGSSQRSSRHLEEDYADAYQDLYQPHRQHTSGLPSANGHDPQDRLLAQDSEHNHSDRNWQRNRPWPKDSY
T1 sequence (P54289 25-956 partner limits assumed): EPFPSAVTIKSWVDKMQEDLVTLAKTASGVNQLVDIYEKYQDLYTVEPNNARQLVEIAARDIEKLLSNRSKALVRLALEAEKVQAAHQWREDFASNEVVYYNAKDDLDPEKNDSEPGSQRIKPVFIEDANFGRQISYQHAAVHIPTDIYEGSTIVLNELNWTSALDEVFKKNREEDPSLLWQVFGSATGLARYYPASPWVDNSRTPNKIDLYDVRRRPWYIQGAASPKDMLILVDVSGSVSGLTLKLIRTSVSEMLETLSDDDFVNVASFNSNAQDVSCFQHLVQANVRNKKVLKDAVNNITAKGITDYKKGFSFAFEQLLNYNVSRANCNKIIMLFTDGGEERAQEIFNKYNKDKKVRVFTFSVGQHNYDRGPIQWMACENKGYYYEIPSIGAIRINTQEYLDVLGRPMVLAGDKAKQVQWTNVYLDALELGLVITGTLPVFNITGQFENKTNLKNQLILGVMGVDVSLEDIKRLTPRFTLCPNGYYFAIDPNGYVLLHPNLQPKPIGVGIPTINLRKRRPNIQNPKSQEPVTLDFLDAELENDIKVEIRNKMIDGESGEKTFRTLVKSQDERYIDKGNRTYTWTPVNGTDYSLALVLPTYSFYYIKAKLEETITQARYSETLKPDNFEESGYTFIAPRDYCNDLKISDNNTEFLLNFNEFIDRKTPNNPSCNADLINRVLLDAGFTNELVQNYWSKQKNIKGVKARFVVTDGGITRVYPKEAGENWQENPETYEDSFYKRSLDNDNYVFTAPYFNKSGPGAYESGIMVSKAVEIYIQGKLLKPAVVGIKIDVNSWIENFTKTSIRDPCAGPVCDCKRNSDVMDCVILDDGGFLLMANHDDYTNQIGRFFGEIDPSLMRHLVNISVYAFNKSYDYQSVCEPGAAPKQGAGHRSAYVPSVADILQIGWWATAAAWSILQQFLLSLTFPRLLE
T1 sequence (P54289 957-1103 partner limits assumed): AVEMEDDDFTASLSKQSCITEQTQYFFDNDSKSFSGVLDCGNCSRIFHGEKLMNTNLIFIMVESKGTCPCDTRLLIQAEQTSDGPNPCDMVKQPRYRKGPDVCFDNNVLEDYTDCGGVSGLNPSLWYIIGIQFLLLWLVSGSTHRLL

Structure (SMILES)	IC50 [nM]	inhibition at 0.33 µM [%]
CC(C)Oc1ccccc1-n1nc2c(c1-c1ccc(Cl)cc1)CN(S(=O)(=O)N(C)C)C2 [Cpd 63, 3-(4-Chlorophenyl)-N,N-dimethyl-2-[2-(1-methylethoxy)phenyl]-2,6-dihydropyrrolo[3,4-c]pyrazole-5(4H)-sulfonamide]	3	–
COc1ccc(-n2nc3c(c2-c2ccc(Cl)cc2)CN(S(C)(=O)=O)C3)c(C)c1 [Cpd 66, 3-(4-Chlorophenyl)-2-(4-methoxy-2-methylphenyl)-5-(methylsulfonyl)-2,4,5,6-tetrahydropyrrolo[3,4-c]pyrazole]	–	35
COc1ccc(-n2nc3c(c2-c2ccc(Cl)cc2)CN(S(=O)(=O)C(C)C)C3)c(C)c1 [Cpd 67, 3-(4-Chlorophenyl)-2-(4-methoxy-2-methylphenyl)-5-[(1-methylethyl)sulfonyl]-2,4,5,6-tetrahydropyrrolo[3,4-c]pyrazole]	190	61
COc1ccc(-n2nc3c(c2-c2ccc(Cl)cc2)CN(S(=O)(=O)C2CCCCC2)C3)c(C)c1 [Cpd 68, 3-(4-Chlorophenyl)-5-(cyclohexylsulfonyl)-2-(4-methoxy-2-methylphenyl)-2,4,5,6-tetrahydropyrrolo[3,4-c]pyrazole]	130	71
COc1ccc(-n2nc3c(c2-c2ccc(Cl)cc2)CN(S(=O)(=O)N(C)C)C3)c(C)c1 [Cpd 69, 3-(4-Chlorophenyl)-2-(4-methoxy-2-methylphenyl)-N,N-dimethyl-2,6-dihydropyrrolo[3,4-c]pyrazole-5(4H)-sulfonamide]	130	69
COc1cc(F)ccc1-n1nc2c(c1-c1ccc(Cl)cc1)CN(S(C)(=O)=O)C2 [Cpd 70, 3-(4-Chlorophenyl)-2-(4-fluoro-2-methoxyphenyl)-5-(methylsulfonyl)-2,4,5,6-tetrahydropyrrolo[3,4-c]pyrazole]	75	74
COc1cc(F)ccc1-n1nc2c(c1-c1ccc(Cl)cc1)CN(S(=O)(=O)C1CCCCC1)C2 [Cpd 72, 3-(4-Chlorophenyl)-5-(cyclohexylsulfonyl)-2-(4-fluoro-2-methoxyphenyl)-2,4,5,6-tetrahydropyrrolo[3,4-c]pyrazole]	95	82
COc1cc(C)ccc1-n1nc2c(c1-c1ccc(Cl)cc1)CN(S(C)(=O)=O)C2 [Cpd 74, 3-(4-Chlorophenyl)-2-(2-methoxy-4-methylphenyl)-5-(methylsulfonyl)-2,4,5,6-tetrahydropyrrolo[3,4-c]pyrazole]	47	82
COc1cc(C)ccc1-n1nc2c(c1-c1ccc(Cl)cc1)CN(S(=O)(=O)C(C)C)C2 [Cpd 75, 3-(4-Chlorophenyl)-2-(2-methoxy-4-methylphenyl)-5-[(1-methylethyl)sulfonyl]-2,4,5,6-tetrahydropyrrolo[3,4-c]pyrazole]	32	93
COc1cc(C)ccc1-n1nc2c(c1-c1ccc(Cl)cc1)CN(S(=O)(=O)N1CCC(C)CC1)C2 [Cpd 77, 3-(4-Chlorophenyl)-2-(2-methoxy-4-methylphenyl)-5-[(4-methylpiperidin-1-yl)sulfonyl]-2,4,5,6-tetrahydropyrrolo[3,4-c]pyrazole]	56	82
COc1ccc(-n2nc3c(c2-c2ccc(Cl)cc2)CN(S(C)(=O)=O)C3)c(F)c1 [Cpd 78, 3-(4-Chlorophenyl)-2-(2-fluoro-4-methoxyphenyl)-5-(methylsulfonyl)-2,4,5,6-tetrahydropyrrolo[3,4-c]pyrazole]	200	62
COc1ccc(-n2nc3c(c2-c2ccc(Cl)cc2)CN(S(=O)(=O)C(C)C)C3)c(F)c1 [Cpd 79, 3-(4-Chlorophenyl)-2-(2-fluoro-4-methoxyphenyl)-5-[(1-methylethyl)sulfonyl]-2,4,5,6-tetrahydropyrrolo[3,4-c]pyrazole]	180	61
COc1ccc(-n2nc3c(c2-c2ccc(Cl)cc2)CN(S(=O)(=O)N2CCC(C)CC2)C3)c(F)c1 [Cpd 80, 3-(4-Chlorophenyl)-2-(2-fluoro-4-methoxyphenyl)-5-[(4-methylpiperidin-1-yl)sulfonyl]-2,4,5,6-tetrahydropyrrolo[3,4-c]pyrazole]	140	62
CN(C)S(=O)(=O)N1Cc2nn(-c3ccccc3OCC(F)(F)F)c(-c3ccc(Cl)cc3)c2C1 [Cpd 90, 3-(4-Chlorophenyl)-N,N-dimethyl-2-[2-(2,2,2-trifluoroethoxy)phenyl]-2,6-dihydropyrrolo[3,4-c]pyrazole-5(4H)-sulfonamide]	85	80
CN(C)S(=O)(=O)N1Cc2nn(-c3ccccc3OC(C)(C)C)c(-c3ccc(Cl)cc3)c2C1 [Cpd 91, 2-(2-tert-Butoxyphenyl)-3-(4-chlorophenyl)-N,N-dimethyl-2,6-dihydropyrrolo[3,4-c]pyrazole-5(4H)-sulfonamide]	63	87
COc1ccccc1-n1nc2c(c1-c1cnc3ccccc3c1)CN(S(=O)(=O)C(C)C)C2 [Cpd 93, 3-{2-(2-Methoxyphenyl)-5-[(1-methylethyl)sulfonyl]-2,4,5,6-tetrahydropyrrolo[3,4-c]pyrazol-3-yl}quinoline]	100	–
COc1ccccc1-n1nc2c(c1-c1ccc(C)nc1)CN(S(=O)(=O)C(C)C)C2 [Cpd 94, 2-(2-Methoxyphenyl)-5-[(1-methylethyl)sulfonyl]-3-(6-methylpyridin-3-yl)-2,4,5,6-tetrahydropyrrolo[3,4-c]pyrazole]	–	46
COc1ccccc1-n1nc2c(c1-c1ccc(OC(C)C)nc1)CN(S(=O)(=O)C(C)C)C2 [Cpd 96, 2-(2-Methoxyphenyl)-3-[6-(1-methylethoxy)pyridin-3-yl]-5-[(1-methylethyl)sulfonyl]-2,4,5,6-tetrahydropyrrolo[3,4-c]pyrazole]	130	79
